# In paper PMC11243066, “Synthesis and Biological Evaluation of Novel Biased Mu-Opioid Receptor Agonists” (Molecules, 2024):
# Tests used:
# [1] = biological target: T1, human μ-opioid receptor (Homo sapiens, UniProt P35372); assay: cell-based; assay type: cell-based; conditions: CHO/μOR cells; for Emax: at the concentration printed in parentheses in the cell, read-out: Max Effect ± SEM (%), µOR-Gi/o activation assay
# T1 construct: expressed in transfected cells; host or cells: CHO (CHO/μOR cells)
# T1 sequence (P35372 whole entry): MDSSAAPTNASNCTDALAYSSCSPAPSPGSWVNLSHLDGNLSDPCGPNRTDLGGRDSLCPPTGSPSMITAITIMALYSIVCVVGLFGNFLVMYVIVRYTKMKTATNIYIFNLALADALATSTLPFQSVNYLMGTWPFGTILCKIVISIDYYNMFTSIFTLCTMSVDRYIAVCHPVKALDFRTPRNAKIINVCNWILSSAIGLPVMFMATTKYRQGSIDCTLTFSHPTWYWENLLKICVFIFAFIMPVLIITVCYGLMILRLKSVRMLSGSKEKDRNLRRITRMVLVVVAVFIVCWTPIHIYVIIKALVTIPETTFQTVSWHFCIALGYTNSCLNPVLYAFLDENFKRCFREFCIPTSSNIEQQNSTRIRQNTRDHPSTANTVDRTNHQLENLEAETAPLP
# Description: The inhibition assay was performed as described previously. In brief, tested compound dilutions (with final concentrations of 100 µM, 50 µM, 10 µM, 1 µM, 500 nM, 100 nM, 50 nM, 10 nM, 1 nM, and 100 pM) were produced in saline or DMSO in triplicate. CHO/μOR cells were suspended in the assay buffer and counted, maintaining a cell density of 2000 cells per well, with 5 µL from each well seeded into a 384-well plate. Subsequently, 5 µL of the tested compound solution per well was dispensed into the plate, which was then placed in a 25 °C incubator and incubated in the dark for 30 min. Next, 10 µL of cAMP standard working solution was added to the empty wells of the plate, followed by the addition of 5 µL of Eu-cAMP and Anti-cAMP per well. The plate was subsequently placed back in a 25 °C incubator and further incubated in the dark for 1 h.
# CHO cells expressing the human μ-opioid receptor were cultivated for the assessment of compound effects. […] Cells collected during the exponential phase of growth were dissociated without enzymes to preserve receptor integrity, resuspended in assay buffer, and counted to achieve a uniform concentration. Cell density was adjusted to 2000 cells per well in a 384-well plate, promoting uniform distribution and optimal receptor presence. Post-seeding at 25 °C in darkness facilitated cell adherence and stabilization prior to compound introduction. Compounds were added in serial dilutions, with meticulous dispensing techniques ensuring dose uniformity. Following a 1 h incubation at 25 °C, TR-FRET reagents were applied to measure cAMP levels, indicative of μOR activity. The Envision system recorded these levels, quantifying compound inhibitory effects. Meticulous aseptic techniques and vigilant monitoring were imperative throughout to guarantee data precision from the assay.
# [2] = biological target: T2, human μOR β-arrestin2 pathway (Homo sapiens, UniProt P35372); assay: cell-based; assay type: cell-based; conditions: U2OS/human μOR β-arrestin cells, n = 3; for Emax: at the concentration printed in parentheses in the cell, read-out: Max Effect ± SEM (%), µOR β-arrestin recruitment assay
# T2 construct: β-galactosidase enzyme fragment (PathHunter complementation tag); host or cells: U2OS (U2OS/human μOR β-arrestin cells)
# T2 sequence (P35372 whole entry, the tested form may be a part): as the sequence (P35372 whole entry) above
# Description: In this assay, optical signal values were detected employing the PathHunter® (DiscoverX, Shanghai, China) Detection Kit assay method. The agonistic activity of tested compounds on the human μOR β-arrestin2 pathway was quantified using a β-galactosidase-based enzyme fragment complementation assay. In brief, tested compound dilutions (with final concentrations of 100 μM, 50 μM, 10 μM, 1 μM, 500 nM, 100 nM, 50 nM, 10 nM, 1 nM, and 100 pM) were produced in saline or DMSO in triplicate. Next, 100 nL of the tested compound solution per well was dispensed into a 384-well cell culture plate. The U2OS/human μOR β-arrestin cells were resuspended in Opti-MEM and counted to achieve a cell density of 4000 cells per well, and 20 μL from each well was seeded into the 384-well cell culture plate. The plate was subsequently incubated at 37 °C in the dark for 120 min. Post-incubation, the cell plate was equilibrated to room temperature for 10–20 min, and 5 μL of the detection reagent were added to each well. Following a 60 min incubation at 25 °C, chemiluminescent readings were obtained using the envision system.
# The cells were maintained at 37 °C with 5% CO2 in McCoy’s 5a medium with supplements and cultivated utilizing precise techniques to ensure accurate, reproducible results. Cells were gently dissociated for assays to maintain receptor integrity and resuspended in Opti-MEM® for compatibility with the PathHunter® (DiscoverX, Shanghai, China). Detection Kit. Cell density was adjusted to 4000 cells per well in a 384-well plate, to ensure that a uniform monolayer was established for the β-galactosidase assay. After seeding and incubation in the dark at 37 °C to facilitate cell attachment, the plates were equilibrated to room temperature prior to compound treatment. Serial dilutions of the compounds were assessed for pharmacological effect. A detection reagent was then added to measure β-galactosidase activity as indicative of μ-opioid receptor and β-arrestin2 interaction. Following reagent incubation, chemiluminescence was quantified, providing quantitative data on compound agonistic activity. Throughout, meticulous aseptic technique and strict adherence to protocols were imperative to ensure the integrity of the pharmacological data derived from these studies.
# [3] = system: mice; assay: Hot-water tail withdrawal test; assay type: in vivo, CD-1 mice; conditions: 20 mg/kg i.v. tail vein, 15 min post administration
# Description: (§1) Food and water were provided ad libitum.
# The hot-water tail withdrawal test was performed as described previously. In brief, the hot-water tail withdrawal test was conducted using a water bath maintained at 55 ± 0.5 °C. The distal 3 cm section of the mouse’s tail was immersed perpendicularly into the hot water. The duration for which the tail remained in the water was recorded as the initial tail withdrawal latency (TWL0). […] Following the administration of a single dose of the test compound (20 mg/kg, i.v.) or vehicle, the subsequent tail withdrawal latency (TWL) was measured at various time intervals (15, 30, 45, 60, and 90 min). To prevent potential tissue damage, a maximum cutoff latency of 16 s was enforced. Antinociception was quantified using the percentage of maximal possible effect (%MPE), calculated as %MPE = 100 × (TWL − TWL0)/(16 − TWL0).
# [4] = system: mice; assay: Formalin paw-licking test; assay type: in vivo, CD-1 mice; conditions: 20 mg/kg i.v. tail vein, Phase II
# Description: as §1
# The formalin injection assay was performed as described previously. […] After 15 min, 30 µL of a 2.7% formalin solution was administered into the right hind paw of each mouse. Then, the mice were put into the cage and their behaviors were observed. The antinociception rate was quantified as the percentage of maximal possible effect (%MPE), calculated as %MPE = 100 × (PLTV − PLTT)/PLTV; PLTV and PLTT represent the average paw-licking duration during Phase II for the vehicle and test groups, respectively.
# [5] = system: mice; assay: Respiratory depression (blood pO2, blood gas analyzer); conditions: single i.v. dose 20 mg/kg (morphine 4 mg/kg), 5-40 min
# Description: (§2) The mice were group-housed in a controlled temperature environment and subjected to a 12 h light/dark cycle (lights on from 07:00 to 19:00). Food and water were provided ad libitum. All animal procedures were conducted in accordance with the policies and recommendations of the International Association for the Study of Pain and the National Health and Animal Welfare Committee of the Beijing Institute of Pharmacology, with the aim of minimizing the number of animals used and their suffering.
# [6] = system: mice; assay: Physical dependence (naloxone-precipitated withdrawal jumping); conditions: i.v. once daily for 5 days, PZM21 and 6a 20 mg/kg, morphine 2 mg/kg, jumps over 20 min
# Description: as §2
# [7] = system: mice; assay: Acetic acid-induced writhing test; assay type: in vivo, CD-1 mice; conditions: 20 mg/kg i.v. tail vein
# Description: as §1
# The acetic acid-induced writhing test was performed as described previously. In brief, after pretreatment with the test compound at a dose of 20 mg/kg via intravenous tail vein injection, 1% (v/v) glacial acetic acid was administered intraperitoneally (i.p.) at a dose of 10 mL/kg. Subsequently, the number of writhing responses over a 20 min period was recorded. The antinociception rate was calculated as the percentage of maximal possible effect (%MPE), where %MPE = 100 × (NWV − NWT)/NWV. NWV and NWT represent the average number of writhing responses of the vehicle and test groups, respectively.
SMILES,µOR agonist efficacy in Gi/o-protein signaling assay (in words) [1],Emax ([1]; n = 3),Emax [2],"pain inhibition rate (%MPE), hot-water tail-withdrawal test [3]","antinociceptive efficacy (%MPE), formalin-induced paw licking, second phase [4]",respiratory depression: partial pressure of oxygen in blood vs vehicle [5],physical dependence: jumping after naloxone-precipitated withdrawal vs vehicle [6],"EC50 ([1]; cAMP inhibition, n = 3, ""-"" = no measurable activity, read-out: EC50 (nM) (95% CI), µOR-Gi/o activation assay)","EC50 ([2]; ""-"" = no measurable activity, read-out: EC50 (nM) (95% CI), µOR β-arrestin recruitment assay)","analgesia rate (%MPE), acetic acid-induced writhing [7]"
"C[C@@H](Cc1ccsc1)NC(=O)NC[C@H](Cc1ccc(O)cc1)N(C)C [PZM21, reference compound]",significant µOR agonist efficacy,89.8 ± 2.93%,3.09 ± 0.42%,69.23%,72.72%,neither the 6a group nor the PZM21 group demonstrated any reduction in respiratory measures,neither 6a nor PZM21 elicited a significant increase in withdrawal behaviors,–,–,–
"CN(C)[C@H](CNC(=O)NCc1ccccc1)Cc1cccc2ccccc12 [6a, (S)-1-benzyl-3-(2-(dimethylamino)-3-(naphthalen-1-yl)propyl) urea]",–,51.9 ± 1.06%,0.38 ± 0.21%,50.19%,73.80%,does not induce acute respiratory depression,does not induce physical dependence or withdrawal symptoms,10.8 nM,> 100000 nM,exceeding 97%
